From patent publication US7998937B2, “Flavonoid compound having an antiviral activity” (Korea Research Institute of Bioscience and Biotechnology, priority 2005, dated 2011)
Values after ≈ are worked out from the molar mass of the structure shown. Like-named read-outs stand apart in the source and are kept apart here.

Key:
[1] = test system: porcine epidemic diarrhea virus (PEDV); assay: Antiviral activity against PEDV in Vero cells (SRB staining); conditions: for IC50: Porcine epidemic diarrhea virus, Vero, 48 h, read-out: IC50 (concentration required for 50% inhibition of viruses); for IC50 (concentration required for 50% inhibition of viruses) / Inhibitory activity (TI = CC50/IC50): PEDV in Vero cells, 48 hours; for IC50 (concentration required for 50% inhibition of viruses): maximum dosage 100 μg/mL; for Inhibitory activity (TI = CC50/IC50): 0.1-100 μg/mL
[2] = test system: porcine transmissible gastroenteritis virus (TGEV); assay: Anti-coronavirus inhibitory activity against TGEV in ST cells; format: cell-based; conditions: for inhibitory activity against TGEV (in words): 0.1-100 μg/mL, 48 hours
Protocol: (§1) Antiviral activity of quercetin-7-rhamnoside against porcine transmissible gastroenteritis virus (TGEV) and porcine respiratory coronavirus (PRCV), another kind of coronaviruses, was evaluated. ST cells were cultured on a 96-well microplate until the bottom of each well was completely covered with cells. Remaining culture medium was completely removed and each well was washed twice with a phosphate buffer. TGEV or PRCV solution adjusted to a concentration of TCID50 was added to each well. Each of quercetin-7-rhamnoside, conventional antiviral agents purchased from Sigma-ribavirin, lamivudine, azidovudine, acycloguanine and glycyrrhizhin-dissolved in dimethyl sulfoxide was added to each well to a final concentration of 0.1-100 μg/mL. […] Similarly to the aforesaid evaluation of antiviral inhibitory activity against PEDV, c ells treated with DMSO only and those treated with both DMSO and TGEV or both DMSO and PRCV were used as control groups.

rotavirus (strain: OSU) = assay: Inhibitory activity against rotavirus in MA104 cells (SRB); format: cell-based; conditions: read-out: Inhibitory activity (%) (Mean ± S.D.)
Protocol: (§2) In order to evaluate the inhibitory activity of quercetin-7-rhamnoside against rota virus, the following in vitro test was performed using MA014 cells derived from pig kidney. Inhibitory activity of quercetin-7-rhamnoside against viral proliferation was measured by the method proposed by Kwon Dur-Han, et al. (Korean Patent Publication No. 2004-101863). Inhibitory activity against rotavirus (strain: OSU) was measured. MA104 cells were cultured on a 96-well microplate until the bottom of each well was completely covered with cells. Remaining culture medium was removed and each well was washed twice with a phosphate buffer. A rota virus solution adjusted to a concentration of TCID 50 was added to each well. […] After 48 hours, the MA104 cells were observed under a microscope. After adding 100 μL of 70% acetone, each well was kept at −20° C. for 1 hour. After drying in a desiccator, 100 μL of 0.4% (w/v) SRB (sulforhodamine B) solution dissolved in 1% (v/v) acetic acid was added. After 30 minutes of staining, the SRB solution not bound to the cells was washed off with 1% (v/v) acetic acid for 4 times. After drying, 100 μL of 10 mM Tris solution (pH 10.5) was added to each well to dissolve the stained substance at the bottom of the well. Light absorbance was measured at 562 nm to evaluate the antiviral activity. As control group, viability of cells treated with DMSO only was compared with those treated with both DMSO and virus. Each test was repeated for 2 times.

[3] = test system: porcine respiratory coronavirus (PRCV); assay: Anti-coronavirus inhibitory activity against PRCV in ST cells; format: cell-based; conditions: for inhibitory activity against PRCV (in words): 0.1-100 μg/mL, 48 hours
Protocol: as §1

[4] = test system: influenza type A (H1N1/WS/33) virus; assay: Antiviral activity against influenza type A virus in MDCK cells (SRB); format: cell-based, influenza virus type A (H1N1; WS/33 strain); conditions: Influenza A virus; 10 μg/mL, influenza A H1N1/WS/33 in MDCK cells, 48 hours, repeated 3 times; read-out: Inhibitory activity (%) (Mean ± S.D.)
Protocol: In order to evaluate the inhibitory activity of quercetin-7-rhamnoside against influenza virus, the following in vitro test was performed using MDCK cells derived from dog kidney.
Inhibitory activity of quercetin-7-rhamnoside against viral proliferation was measured by the method proposed by Kwon Dur-Han, et al. (Korean Patent Application No. 2004-101863). Inhibitory activity against influenza virus type A (H1N1; WS/33 strain) was measured. MDCK cells were cultured on a 96-well microplate until the bottom of each well was completely covered with cells. Remaining culture medium was completely removed and each well was washed twice with a phosphate buffer. Each of quercetin-7-rhamnoside; conventional antiviral agents purchased from Sigma-ribavirin and amantadine; oseltamivir (trade name: Tamiflu) purchased from Roche; and zanamivir (trade name: Relenza) purchased from Glaxo Wellcome; dissolved in dimethyl sulfoxide was added to each well to a final concentration of 10 μg/mL. […] After adding 100 μL of 70% acetone, each well was kept at −20° C. for 1 hour. After drying in a desiccator, 100 μL of 0.4% (w/v) SRB (sulforhodamine B) solution dissolved in 1% (v/v) acetic acid was added. After 30 minutes' staining, the SRB staining solution not bound to the cells was washed off with 1% (v/v) acetic acid for 4 times. After drying, 100 μL of 10 mM Tris solution (pH 10.5) was added to each well to dissolve the stained substance at the bottom of the well. Light absorbance was measured at 562 nm to evaluate the antiviral activity. As control group, viability of cells treated with DMSO only was compared with those treated with both DMSO and virus. Each test was repeated 3 times.

[5] = test system: influenza type B (B/Lee/40) virus; assay: Inhibitory activity against influenza type B virus in MDCK cells (SRB); format: cell-based; conditions: Influenza B virus, read-out: Inhibitory activity (%) (Mean ± S.D.)
[6] = test system: rhinovirus (strain: rhinovirus 2); assay: Inhibitory activity against rhinovirus in HeLa cells (SRB); format: cell-based; conditions: for inhibition at 10 µg/mL: Enterovirus, HeLa, 48 h, read-out: Inhibitory activity (%) (Mean ± S.D.)
Protocol: as §2, with “against rhino” for “against rota”, “using HeLa, one of human cervical cancer cell lines, cells.” for “using MA014 cells derived from pig kidney.”, “2004-101863). […] HeLa” for “2004-101863). Inhibitory activity against rotavirus (strain: OSU) was measured. MA104”, “A rhino” for “A rota”, “the HeLa” for “the MA104”, “for 3” for “for 2”

in vitro [7] = conditions: African green monkey
in vitro [8] = conditions: pig
[9] = 10 μg/mL, rotavirus OSU in MA104 cells, 48 hours, repeated 2 times
[10] = 10 μg/mL, rhinovirus 2 in HeLa cells, 48 hours, repeated 3 times
[11] = 10 μg/mL, influenza B/Lee/40 in MDCK cells, 48 hours, repeated 3 times
[12] = Alphacoronavirus 1, 48 hours, read-out: IC50

**Q.** With `Nc1ccn([C@@H]2CS[C@H](CO)O2)c(=O)n1` [Lamivudine, lamivudine] as the compound, how does the IC50 [1] read?
**A.** Its IC50 is greater than 100 µg/mL.

**Q.** What about the “inhibitory activity against TGEV (in words)” value [2] of the same compound?
**A.** The value was “no inhibitory activity”.

**Q.** What about the inhibition at 10 µg/mL (rotavirus (strain: OSU); [9]) of the same compound?
**A.** The inhibition at 10 µg/mL was 0.02%.

**Q.** And the “inhibitory activity against PRCV (in words)” value [3]?
**A.** The value was “no inhibitory activity”.

**Q.** Which results are given for `NC12CC3CC(CC(C3)C1)C2` [Amantadine, amantadine]?
**A.** inhibition at 10 µg/mL [4]: 14.6%; inhibition at 10 µg/mL ([5]; MDCK, 48 h): -1.85%

**Q.** With `C[C@@H]1O[C@@H](OC[C@H]2O[C@@H](Oc3c(-c4ccc(O)c(O)c4)oc4cc(O)cc(O)c4c3=O)[C@H](O)[C@@H](O)[C@@H]2O)[C@H](O)[C@H](O)[C@H]1O` [Rutin, rutin] as the compound, how does the IC50 [1] read?
**A.** Its IC50 is greater than 100 µg/mL.

**Q.** And the inhibition at 10 µg/mL [6, 10]?
**A.** Its inhibition at 10 µg/mL is 25.7%.

**Q.** With `O=c1cc(-c2ccc(O)cc2)oc2cc(O)cc(O)c12` [Apigenin, apigenin] as the compound, how does the IC50 [1] read?
**A.** Its IC50 is 0.1 µg/mL (≈ 0.37 µM).

**Q.** And the inhibition at 10 µg/mL [6, 10]?
**A.** Its inhibition at 10 µg/mL is 9.24%.

**Q.** What about the CC50 at 48 h (in vitro [7]) of the same compound?
**A.** Its CC50 at 48 h is 50 µg/mL (≈ 185 µM).

**Q.** Which results are given for `COc1ccc([C@@H]2CC(=O)c3c(O)cc(O[C@@H]4O[C@H](CO[C@@H]5O[C@@H](C)[C@H](O)[C@@H](O)[C@H]5O)[C@@H](O)[C@H](O)[C@H]4O)cc3O2)cc1O` [Hesperidin, hesperidin]?
**A.** IC50 (concentration required for 50% inhibition of viruses) [1]: IC50 not attained even at the maximum dosage.; Inhibitory activity (%) (Mean ± S.D.) [6, 10]: 3.12%

**Q.** Which results are given for `Nc1nc2c(ncn2COCCO)c(=O)[nH]1` [Acycloguanine, acycloguanine]?
**A.** IC50 (concentration required for 50% inhibition of viruses) [1]: IC50 not attained even at the maximum dosage; IC50 [1]: > 100 µg/mL; inhibitory activity against TGEV (in words) [2]: no inhibitory activity; inhibition at 10 µg/mL (rotavirus (strain: OSU); [9]): 0.78%; inhibitory activity against PRCV (in words) [3]: no inhibitory activity

**Q.** Which IC50 [1] does the source give for `C[C@@H]1O[C@@H](Oc2c(-c3ccc(O)c(O)c3)oc3cc(O)cc(O)c3c2=O)[C@H](O)[C@H](O)[C@H]1O` [Quercitrin, quercitrin] here?
**A.** Its IC50 is greater than 100 µg/mL.

**Q.** What about the inhibition at 10 µg/mL [6] of the same compound?
**A.** Its inhibition at 10 µg/mL is 13.4%.

**Q.** Which IC50 [1] does the source give for `O=c1c(O)c(-c2ccc(O)c(O)c2)oc2cc(O)cc(O)c12` [Quercetin, quercetin] here?
**A.** Its IC50 is 10.7 µg/mL (≈ 35.4 µM).

**Q.** And the inhibition at 10 µg/mL [6, 10]?
**A.** The inhibition at 10 µg/mL was 9.87%.

**Q.** What about the CC50 at 48 h (in vitro [7]) of the same compound?
**A.** Its CC50 at 48 h is 365 µg/mL (≈ 1210 µM).

**Q.** Which “IC50 (concentration required for 50% inhibition of viruses)” value [1] does the source give for `O=c1c(-c2ccc(O)cc2)coc2cc(O[C@@H]3O[C@H](CO)[C@@H](O)[C@H](O)[C@H]3O)cc(O)c12` [Genistin, genistin] here?
**A.** Its value is “IC50 not attained even at the maximum dosage”.

**Q.** What about the IC50 [1] of the same compound?
**A.** The IC50 was greater than 100 µg/mL.

**Q.** What about the inhibition at 10 µg/mL [6, 10] of the same compound?
**A.** The inhibition at 10 µg/mL was 13%.

**Q.** What does the source list for catechin?
**A.** Inhibitory activity (TI = CC50/IC50) [1]: > 9.0; Inhibitory activity (TI = CC50/IC50) ([1]; listed as catechin): 9.0; IC50 (concentration required for 50% inhibition of viruses) [1]: 11.1 µg/mL; Inhibitory activity (%) (Mean ± S.D.) [6, 10]: 11.21%

**Q.** What does the source list for `NC(=O)c1ncn([C@@H]2O[C@H](CO)[C@@H](O)[C@H]2O)n1` [Ribavirin, ribavirin]?
**A.** inhibition at 10 µg/mL [4]: 74.2%; IC50 [1]: 4.1 µg/mL (≈ 16.8 µM); inhibition at 10 µg/mL [5, 11]: 95.8%; CC50 at 48 h (in vitro [8]): > 100 µg/mL; Inhibitory activity (%) (Mean ± S.D.) [6, 10]: 42.32 ± 4.38%; inhibition at 10 µg/mL [6, 10]: 42.3%; IC50 [2, 12]: 55.1 µg/mL (≈ 226 µM); CC50 at 48 h (in vitro [7]): > 100 µg/mL; inhibition at 10 µg/mL (rotavirus (strain: OSU); [9]): 82.3%; IC50 [3, 12]: 61.6 µg/mL (≈ 252 µM)

**Q.** What does the source list for `CC(=O)N[C@H]1[C@H]([C@H](O)[C@H](O)CO)OC(C(=O)O)=C[C@@H]1N=C(N)N` [Relenza, zanamivir]?
**A.** inhibition at 10 µg/mL [4]: 52.7%; IC50 (concentration required for 50% inhibition of viruses) [1]: IC50 not attained even at the maximum dosage; inhibition at 10 µg/mL [5, 11]: 3.4%; inhibition at 10 µg/mL (rotavirus (strain: OSU); [9]): 0.5%

**Q.** Which results are given for `CCOC(=O)C1=C[C@@H](OC(CC)CC)[C@H](NC(C)=O)[C@@H](N)C1` [Tamiflu, oseltamivir]?
**A.** inhibition at 10 µg/mL [4]: -9.78%; IC50 (concentration required for 50% inhibition of viruses) [1]: IC50 not attained even at the maximum dosage; inhibition at 10 µg/mL ([5]; MDCK, 48 h): -1.43%

**Q.** Which results are given for `CC1(C)[C@@H](O[C@H]2O[C@H](C(=O)O)[C@@H](O)[C@H](O)[C@H]2O[C@@H]2O[C@H](C(=O)O)[C@@H](O)[C@H](O)[C@H]2O)CC[C@]2(C)[C@H]3C(=O)C=C4[C@@H]5C[C@@](C)(C(=O)O)CC[C@]5(C)CC[C@@]4(C)[C@]3(C)CC[C@@H]12` [Glycyrrhizin, glycyrrhizin]?
**A.** inhibitory activity against TGEV (in words) [2]: no inhibitory activity; inhibition at 10 µg/mL (rotavirus (strain: OSU); Rotavirus, MA104, 48 h): 0.49%; inhibitory activity against PRCV (in words) [3]: no inhibitory activity

**Q.** Which results are given for `O=c1cc(-c2ccc(O)c(O)c2)oc2cc(O)cc(O)c12` [Luteolin, luteolin]?
**A.** IC50 [1]: 0.21 µg/mL (≈ 0.734 µM); inhibition at 10 µg/mL [6, 10]: 21.8%
